Columns and labels:
[1] = RP-TLC lipophilicity (RP-18 plates, acetone–TRIS buffer pH 7.4); conditions: for C0: C0 = −RM0/b; for RM0: RP-18, acetone–TRIS buffer pH 7.4, extrapolated to zero acetone concentration; for b / -b: slope of RM = RM0 + bC; for b: compounds 1–15; for -b: standards I–V
Experimental: (§1) RP-18 plates were used as the stationary phase, while organic modifiers containing acetone were used as the mobile phase. The linear relationship between RM0 and acetone concentration was determined on the basis of Equation (2) (Table 2). In addition to this, thanks to the relationship observed between RM0 and the slope of these linear plots (b), the lipophilicity parameter C0 was also determined (Table 2).
(§2) All chromatographic experiments were performed on a silica gel 60 RP-18 F254S (10 cm × 10 cm) RP-TLC plate (Merck, Darmstadt, Germany). The mobile phase was prepared by mixing the respective amount of aqueous TRIS (tris(hydroxymethyl)aminomethane) buffer, pH = 7.4 (ionic strength 0.2 M), to meet physiological conditions and acetone in a range from 50 to 80% (v/v) in increments of 5%. […] Before plate development, the chromatographic chambers were saturated with the mobile phase for 0.5 h. […] Each chromatographic experiment was run in triplicate, and then mean values of the retardation factor, i.e., RF values, were used to determine the RMW values of the compounds.
(§3) Next, the chromatographic data in the form of RM0 and coefficient b were used to calculate the lipophilicity parameter C0 [56] from the following Equation (3):(3) C0=−RM0/b

[2] = system: lung cancer A549 cell line; design: method as in PMID 30981160; conditions: A549 cell line ref 24; cited from earlier work
[3] = system: human lung carcinoma A549; design: method as in PMID 36014495; conditions: A549 ref 25; cited from earlier work
[4] = system: non-small lung carcinoma H1299; design: method as in PMID 36014495; conditions: H1299 ref 25; cited from earlier work
NHDF cells = system: NHDF cells; design: method as in PMID 36014495; conditions: NHDF cells at IC50 doses against A549 or H1299 cells ref 25; cited from earlier work
BEAS-2B cells = system: BEAS-2B cells; design: method as in PMID 36014495; conditions: BEAS-2B cells at IC50 doses against A549 or H1299 cells ref 25; cited from earlier work
[5] = system: glioblastoma SNB-19 cell line; design: method as in PMID 30981160; conditions: SNB-19 cell line ref 24; cited from earlier work
BCL-2 expression = system: BCL-2 expression; design: method as in PMID 30981160; conditions: RT-QPCR, A549 and SNB-19 ref 24; cited from earlier work
BAX expression = system: BAX expression; design: method as in PMID 30981160; conditions: RT-QPCR, cancer cell lines ref 24; cited from earlier work

Experimental for physchem: as §1, §2, §3

Row | chromatographic logP (physchem) | C0 [1] | RM0 [1] | b [1] | SMILES | also measured
1 | 4.64 | 0.7233 | 3.45 | −4.77 | CCN(CC)CCN1c2cnc3ccccc3c2Sc2cc3ccccc3nc21 [Compound 1, 7-(2'-Diethylaminoethyl)diquino[3,2-b;3 ',4'-e]thiazine] | –
2 | 4.08 | 0.7359 | 3.01 | −4.09 | CN(C)CCCN1c2cnc3ccccc3c2Sc2cc3ccccc3nc21 [Compound 2, 7-(3'-Dimethylaminopropyl)diquino[3,2-b;3 ',4'-e]thiazine] | IC50 [2]: 300 nM; In vitro anticancer activity [3]: significant in vitro anticancer activity; In vitro anticancer activity [4]: significant in vitro anticancer activity; Lethal effect (NHDF cells): weak lethal effect; Lethal effect (BEAS-2B cells): weak lethal effect
3 | – | 0.7210 | 3.05 | −4.23 | c1ccc2nc3c(cc2c1)Sc1c(cnc2ccccc12)N3CCN1CCCC1 [Compound 3, 7-(1'-Pyrolidinylethyl)diquino[3,2-b;3 ',4'-e]thiazine] | –
4 | 4.68 | 0.7117 | 3.48 | −4.89 | c1ccc2nc3c(cc2c1)Sc1c(cnc2ccccc12)N3CCN1CCCCC1 [Compound 4, 7-(1'-Piperidinylethyl)diquino[3,2-b;3 ',4'-e]thiazine] | –
5 | 4.89 | 0.7082 | 3.64 | −5.14 | CN1CCCCC1CCN1c2cnc3ccccc3c2Sc2cc3ccccc3nc21 (stereo not drawn) [Compound 5, 7-(1'-M ethyl-2 '-piperydinylethyl)diquino[3,2-b;3 ',4'-e]thiazine] | –
6 | 4.94 | 0.7588 | 3.68 | −4.85 | CCN(CC)CCN1c2ccc3ncccc3c2Sc2cc3ccccc3nc21 [Compound 6, 7-(2'-Diethylaminoethyl)diquino[3,2-b;6 ',5'-e]thiazine] | –
7 | 4.46 | 0.7627 | 3.31 | −4.34 | CN(C)CCCN1c2ccc3ncccc3c2Sc2cc3ccccc3nc21 [Compound 7, 7-(3'-Dimethylaminopropyl)diquino[3,2-b;6 ',5'-e]thiazine] | –
8 | – | 0.7565 | 3.48 | −4.60 | c1ccc2nc3c(cc2c1)Sc1c(ccc2ncccc12)N3CCN1CCCC1 [Compound 8, 7-(1'-Pyrolidinylethyl)diquino[3,2-b;6 ',5'-e]thiazine] | IC50 [5]: 300 nM; Expression of BCL-2 (BCL-2 expression): markedly reduced; Expression of BAX (BAX expression): markedly reduced
9 | 4.95 | 0.7562 | 3.69 | −4.88 | c1ccc2nc3c(cc2c1)Sc1c(ccc2ncccc12)N3CCN1CCCCC1 [Compound 9, 7-(1'-Piperidinylethyl)diquino[3,2-b;6 ',5'-e]thiazine] | –
10 | 5.13 | 0.7599 | 3.83 | −5.04 | CN1CCCCC1CCN1c2ccc3ncccc3c2Sc2cc3ccccc3nc21 (stereo not drawn) [Compound 10, 7-(1'-M ethyl-2 '-piperydinylethyl)diquino[3,2-b;6 ',5'-e]thiazine] | –
11 | 4.84 | 0.7579 | 3.60 | −4.75 | CCN(CC)CCN1c2nc3ccccc3cc2Sc2ccc3cccnc3c21 [Compound 11, 14-(2'-Diethylaminoethyl)diquino[3,2-b;8 ',7'-e]thiazine] | –
12 | 4.28 | 0.7458 | 3.17 | −4.25 | CN(C)CCCN1c2nc3ccccc3cc2Sc2ccc3cccnc3c21 [Compound 12, 14-(3'-Dimethylaminopropyl)diquino[3,2-b;8 ',7'-e]thiazine] | –
13 | 4.36 | 0.7672 | 3.23 | −4.21 | c1ccc2nc3c(cc2c1)Sc1ccc2cccnc2c1N3CCN1CCCC1 [Compound 13, 14-(1'-Pyrolidinylethyl)diquino[3,2-b;8 ',7'-e]thiazine] | –
14 | 4.85 | 0.7697 | 3.61 | −4.69 | c1ccc2nc3c(cc2c1)Sc1ccc2cccnc2c1N3CCN1CCCCC1 [Compound 14, 14-(1'-Piperidinylethyl)diquino[3,2-b;8 ',7'-e]thiazine] | –
15 | 5.12 | 0.7625 | 3.82 | −5.01 | CN1CCCCC1CCN1c2nc3ccccc3cc2Sc2ccc3cccnc3c21 (stereo not drawn) [Compound 15, 14-(1'-M ethyl-2 '-piperydinylethyl)diquino[3,2-b;8 ',7'-e]thiazine] | –
16 | – | – | 0.78 | – | CC(=O)Nc1ccccc1 [Standard I, acetanilide, reference compound] | –
17 | – | – | 3.33 | – | c1ccc2cc3ccccc3cc2c1 [Standard IV, anthracene, reference compound] | -b [1]: 0.0412

Row | SMILES | chromatographic logP (physchem) | C0 [1] | RM0 [1] | b [1] | also measured
18 | O=C(O)c1ccccc1 [Standard II, benzoic acid, reference compound] | – | – | 1.16 | – | -b [1]: 0.0247
19 | Clc1ccc(C(c2ccc(Cl)cc2)C(Cl)(Cl)Cl)cc1 [Standard V, p,p′-DDT, reference compound] | – | – | 4.69 | – | –

From publication PMC11206290, “Study of the Lipophilicity and ADMET Parameters of New Anticancer Diquinothiazines with Pharmacophore Substituents” (Pharmaceuticals, 2024)
